This note sets out measurements from the kinase profiling compilation of Christmann-Franck et al. (2016).

Molecules are shown by their SMILES. Where “and” joins values, the source holds several entries; their conditions need not be identical. Identical values can stand only once.

Chain of FGFR3 (human) (P22607 whole entry, looked up): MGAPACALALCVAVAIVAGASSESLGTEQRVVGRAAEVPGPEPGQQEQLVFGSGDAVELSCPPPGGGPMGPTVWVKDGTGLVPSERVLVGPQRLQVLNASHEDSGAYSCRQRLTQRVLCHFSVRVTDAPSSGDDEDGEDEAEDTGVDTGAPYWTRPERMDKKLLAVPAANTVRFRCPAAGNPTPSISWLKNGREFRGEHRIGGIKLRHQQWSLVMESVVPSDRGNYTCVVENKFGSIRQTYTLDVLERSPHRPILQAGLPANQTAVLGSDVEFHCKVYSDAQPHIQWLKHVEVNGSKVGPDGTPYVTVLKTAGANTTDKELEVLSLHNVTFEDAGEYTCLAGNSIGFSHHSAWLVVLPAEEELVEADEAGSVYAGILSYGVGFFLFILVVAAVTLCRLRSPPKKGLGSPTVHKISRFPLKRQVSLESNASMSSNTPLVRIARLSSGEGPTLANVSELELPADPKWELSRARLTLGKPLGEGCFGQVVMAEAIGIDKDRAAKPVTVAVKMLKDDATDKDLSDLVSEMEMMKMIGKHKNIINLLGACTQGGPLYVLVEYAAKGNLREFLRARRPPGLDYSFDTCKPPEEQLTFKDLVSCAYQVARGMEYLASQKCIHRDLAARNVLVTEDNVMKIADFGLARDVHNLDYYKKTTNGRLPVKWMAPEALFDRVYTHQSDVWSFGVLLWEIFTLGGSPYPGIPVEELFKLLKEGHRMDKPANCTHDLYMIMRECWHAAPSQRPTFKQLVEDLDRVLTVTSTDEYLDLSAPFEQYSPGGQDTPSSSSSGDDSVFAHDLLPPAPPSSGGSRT
Chain of LYN (human) (P07948 whole entry, looked up): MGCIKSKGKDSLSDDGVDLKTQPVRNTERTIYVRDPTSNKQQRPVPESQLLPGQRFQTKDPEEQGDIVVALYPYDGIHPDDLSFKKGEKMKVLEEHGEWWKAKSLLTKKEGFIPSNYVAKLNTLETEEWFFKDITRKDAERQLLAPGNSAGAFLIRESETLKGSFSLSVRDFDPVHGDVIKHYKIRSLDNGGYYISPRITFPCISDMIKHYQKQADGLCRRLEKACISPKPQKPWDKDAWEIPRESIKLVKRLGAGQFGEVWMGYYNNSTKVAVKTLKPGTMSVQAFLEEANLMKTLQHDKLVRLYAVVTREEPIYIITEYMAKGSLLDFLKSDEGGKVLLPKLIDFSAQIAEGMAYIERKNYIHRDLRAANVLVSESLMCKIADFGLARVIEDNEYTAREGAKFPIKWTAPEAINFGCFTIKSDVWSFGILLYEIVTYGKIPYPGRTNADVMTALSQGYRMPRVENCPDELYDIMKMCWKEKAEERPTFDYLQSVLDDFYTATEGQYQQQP
Chain of BRSK1 (human) (Q8TDC3 whole entry, looked up): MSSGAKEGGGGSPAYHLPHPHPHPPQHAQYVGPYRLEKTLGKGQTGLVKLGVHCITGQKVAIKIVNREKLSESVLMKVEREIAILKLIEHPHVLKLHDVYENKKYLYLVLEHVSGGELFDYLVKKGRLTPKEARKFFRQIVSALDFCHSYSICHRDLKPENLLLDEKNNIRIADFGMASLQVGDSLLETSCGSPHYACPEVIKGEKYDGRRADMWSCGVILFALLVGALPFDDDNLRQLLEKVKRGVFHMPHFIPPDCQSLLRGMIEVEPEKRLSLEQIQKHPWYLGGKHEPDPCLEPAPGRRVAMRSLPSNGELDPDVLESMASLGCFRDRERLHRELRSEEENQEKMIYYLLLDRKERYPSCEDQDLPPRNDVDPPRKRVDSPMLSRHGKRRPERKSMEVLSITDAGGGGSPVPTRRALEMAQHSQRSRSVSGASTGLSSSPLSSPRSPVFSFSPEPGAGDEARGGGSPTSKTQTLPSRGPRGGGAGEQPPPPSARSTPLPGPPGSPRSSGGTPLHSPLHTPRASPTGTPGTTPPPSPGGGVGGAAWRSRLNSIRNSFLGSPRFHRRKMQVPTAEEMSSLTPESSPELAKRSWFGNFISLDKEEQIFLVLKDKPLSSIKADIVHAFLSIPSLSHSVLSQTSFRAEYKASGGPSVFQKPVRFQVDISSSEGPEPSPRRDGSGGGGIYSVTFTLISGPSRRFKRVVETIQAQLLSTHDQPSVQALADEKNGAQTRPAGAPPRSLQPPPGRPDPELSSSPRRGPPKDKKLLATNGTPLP
Chain of CLK3 (human) (P49761 whole entry, looked up): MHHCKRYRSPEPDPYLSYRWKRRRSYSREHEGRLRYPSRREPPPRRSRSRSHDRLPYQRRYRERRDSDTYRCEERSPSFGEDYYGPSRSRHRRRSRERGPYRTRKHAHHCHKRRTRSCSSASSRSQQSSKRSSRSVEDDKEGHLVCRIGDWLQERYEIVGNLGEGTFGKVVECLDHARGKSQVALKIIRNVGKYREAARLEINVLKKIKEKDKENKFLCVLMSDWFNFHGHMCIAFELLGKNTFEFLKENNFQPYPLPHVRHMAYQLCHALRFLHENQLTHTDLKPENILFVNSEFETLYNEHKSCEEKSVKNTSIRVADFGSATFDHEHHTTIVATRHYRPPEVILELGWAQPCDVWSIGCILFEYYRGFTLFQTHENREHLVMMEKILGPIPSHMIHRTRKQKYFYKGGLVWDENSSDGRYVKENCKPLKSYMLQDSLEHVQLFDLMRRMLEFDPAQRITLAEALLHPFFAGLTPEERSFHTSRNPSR
Chain of MAPK3 (human) (P27361 whole entry, looked up): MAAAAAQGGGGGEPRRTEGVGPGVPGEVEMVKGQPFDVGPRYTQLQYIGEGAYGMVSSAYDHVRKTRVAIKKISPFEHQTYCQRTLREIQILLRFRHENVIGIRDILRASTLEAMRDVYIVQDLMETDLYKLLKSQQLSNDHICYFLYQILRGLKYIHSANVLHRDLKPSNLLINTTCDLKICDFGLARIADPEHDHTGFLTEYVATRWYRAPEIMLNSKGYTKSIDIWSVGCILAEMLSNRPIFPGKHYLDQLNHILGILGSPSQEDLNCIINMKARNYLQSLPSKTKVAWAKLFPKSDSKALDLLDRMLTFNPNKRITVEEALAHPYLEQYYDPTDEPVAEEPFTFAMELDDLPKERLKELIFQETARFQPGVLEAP

The first test deals with ADRBK2 (human) (UniProt P35626). Kind of test: radiometric filter-binding kinase assay, Kinase HotSpot. Conditions: compound 0.5 µM; ATP 10 µM.
Chain of ADRBK2 (human) (P35626 whole entry, looked up): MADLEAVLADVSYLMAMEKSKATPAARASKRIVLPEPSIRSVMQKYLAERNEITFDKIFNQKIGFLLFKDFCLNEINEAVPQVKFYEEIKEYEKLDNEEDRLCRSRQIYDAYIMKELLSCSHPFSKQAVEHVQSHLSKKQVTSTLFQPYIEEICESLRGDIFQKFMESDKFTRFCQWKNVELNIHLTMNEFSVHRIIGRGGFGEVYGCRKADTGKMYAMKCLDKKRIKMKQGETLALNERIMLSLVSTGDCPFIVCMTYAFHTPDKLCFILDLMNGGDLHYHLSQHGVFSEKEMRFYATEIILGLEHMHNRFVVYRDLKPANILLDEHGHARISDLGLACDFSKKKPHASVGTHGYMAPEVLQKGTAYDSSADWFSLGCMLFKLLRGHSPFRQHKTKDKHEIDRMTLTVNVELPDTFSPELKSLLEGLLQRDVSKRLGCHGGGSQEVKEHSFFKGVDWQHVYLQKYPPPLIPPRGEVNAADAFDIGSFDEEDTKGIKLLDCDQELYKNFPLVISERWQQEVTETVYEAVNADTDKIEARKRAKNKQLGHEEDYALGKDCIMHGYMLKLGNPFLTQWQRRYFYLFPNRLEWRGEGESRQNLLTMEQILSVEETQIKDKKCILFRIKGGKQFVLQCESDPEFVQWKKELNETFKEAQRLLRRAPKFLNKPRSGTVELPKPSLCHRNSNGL
Broadly, the residual activity is the signal under treatment as a percentage of the control signal. On to `O=C(Nc1cccc(Nc2nccc(Nc3cccc(C(F)(F)F)c3)n2)c1)C1CC1`, for which the residual activity came out at 93.1%.

Take `Nc1cccc(-c2cc3c(Oc4cccc(O)c4)ncnc3[nH]2)c1`: the residual activity was 101%.

As to `CC[n+]1c(/C=C/N(C)c2ccccc2)n(-c2ccccc2)c2ccc(-c3nc4ccccc4s3)cc21`, the residual activity came out at 97.4%.

A further test deals with AXL (human) (UniProt P30530). The description is as above. As to conditions: compound 0.5 µM; ATP 10 µM.
Chain of AXL (human) (P30530 whole entry, looked up): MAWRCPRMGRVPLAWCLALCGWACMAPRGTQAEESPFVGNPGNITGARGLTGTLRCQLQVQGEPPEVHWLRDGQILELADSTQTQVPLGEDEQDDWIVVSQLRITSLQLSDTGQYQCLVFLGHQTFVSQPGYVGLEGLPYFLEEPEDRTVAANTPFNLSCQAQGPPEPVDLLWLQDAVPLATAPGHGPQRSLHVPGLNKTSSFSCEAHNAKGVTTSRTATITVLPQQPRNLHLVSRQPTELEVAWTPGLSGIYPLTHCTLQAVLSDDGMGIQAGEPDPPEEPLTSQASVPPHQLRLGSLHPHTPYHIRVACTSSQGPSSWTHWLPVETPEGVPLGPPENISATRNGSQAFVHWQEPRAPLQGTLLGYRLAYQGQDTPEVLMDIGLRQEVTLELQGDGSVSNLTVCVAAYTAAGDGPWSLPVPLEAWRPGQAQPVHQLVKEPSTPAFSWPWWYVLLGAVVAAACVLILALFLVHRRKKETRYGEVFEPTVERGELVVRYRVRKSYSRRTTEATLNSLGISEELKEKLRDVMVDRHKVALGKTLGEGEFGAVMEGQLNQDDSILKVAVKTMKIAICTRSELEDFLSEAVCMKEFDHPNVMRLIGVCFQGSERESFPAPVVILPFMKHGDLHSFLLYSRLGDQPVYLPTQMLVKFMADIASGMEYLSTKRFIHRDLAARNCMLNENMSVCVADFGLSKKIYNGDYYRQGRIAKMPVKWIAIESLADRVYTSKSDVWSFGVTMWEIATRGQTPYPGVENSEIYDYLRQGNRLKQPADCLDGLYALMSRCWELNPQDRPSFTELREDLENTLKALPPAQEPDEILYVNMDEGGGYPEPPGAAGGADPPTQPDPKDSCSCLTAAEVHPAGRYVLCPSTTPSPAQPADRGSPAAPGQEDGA
In the case of `O=C(Nc1cccc(Nc2nccc(Nc3cccc(C(F)(F)F)c3)n2)c1)C1CC1`, the residual activity is 104%.

With `Nc1cccc(-c2cc3c(Oc4cccc(O)c4)ncnc3[nH]2)c1`, the residual activity came out at 75.9%.

On to `CC[n+]1c(/C=C/N(C)c2ccccc2)n(-c2ccccc2)c2ccc(-c3nc4ccccc4s3)cc21`, for which the residual activity is 101%.

Another test addresses BRSK1 (human) (UniProt Q8TDC3). The test is described as above. As to conditions: compound 0.5 µM; ATP 10 µM.
`O=C(Nc1cccc(Nc2nccc(Nc3cccc(C(F)(F)F)c3)n2)c1)C1CC1`: the residual activity was 97.1%.

`Nc1cccc(-c2cc3c(Oc4cccc(O)c4)ncnc3[nH]2)c1`: the residual activity stood at 83.1%.

In the case of `CC[n+]1c(/C=C/N(C)c2ccccc2)n(-c2ccccc2)c2ccc(-c3nc4ccccc4s3)cc21`, the residual activity amounted to 101%.

The next test addresses CDK9 CCNT1 (human) (UniProt P50750+O60563). The test is described as above. Conditions: compound 0.5 µM; ATP 10 µM.
For the compound `O=C(Nc1cccc(Nc2nccc(Nc3cccc(C(F)(F)F)c3)n2)c1)C1CC1`, the residual activity amounted to 86.8%.

In the case of `Nc1cccc(-c2cc3c(Oc4cccc(O)c4)ncnc3[nH]2)c1`, the residual activity came out at 63.2%.

For the compound `CC[n+]1c(/C=C/N(C)c2ccccc2)n(-c2ccccc2)c2ccc(-c3nc4ccccc4s3)cc21`, the residual activity stood at 89.5%.

A further test addresses CLK3 (human) (UniProt P49761). The test is described as above. Conditions: compound 0.5 µM; ATP 10 µM.
As for `O=C(Nc1cccc(Nc2nccc(Nc3cccc(C(F)(F)F)c3)n2)c1)C1CC1`, the residual activity stood at 104%.

In the case of `Nc1cccc(-c2cc3c(Oc4cccc(O)c4)ncnc3[nH]2)c1`, the residual activity was 74%.

For `CC[n+]1c(/C=C/N(C)c2ccccc2)n(-c2ccccc2)c2ccc(-c3nc4ccccc4s3)cc21`, the residual activity amounted to 114%.

For the next test, the target named is CLK4 (human) (UniProt Q9HAZ1). Described as above. Conditions: compound 0.5 µM; ATP 10 µM.
On to `O=C(Nc1cccc(Nc2nccc(Nc3cccc(C(F)(F)F)c3)n2)c1)C1CC1`, for which the residual activity was 84.3%.

Consider `Nc1cccc(-c2cc3c(Oc4cccc(O)c4)ncnc3[nH]2)c1`, for which the residual activity turned out to be 104%.

On to `CC[n+]1c(/C=C/N(C)c2ccccc2)n(-c2ccccc2)c2ccc(-c3nc4ccccc4s3)cc21`, for which the residual activity was 95.5%.

Another test addresses CSNK1A1 (human) (UniProt P48729). The test is described as above. Conditions: compound 0.5 µM; ATP 10 µM.
As to `O=C(Nc1cccc(Nc2nccc(Nc3cccc(C(F)(F)F)c3)n2)c1)C1CC1`, the residual activity came to 95.8%.

On to `Nc1cccc(-c2cc3c(Oc4cccc(O)c4)ncnc3[nH]2)c1`, for which the residual activity worked out at 61.8%.

Turning to `CC[n+]1c(/C=C/N(C)c2ccccc2)n(-c2ccccc2)c2ccc(-c3nc4ccccc4s3)cc21`, the residual activity turned out to be 106%.

The next test deals with EPHB2 (human) (UniProt P29323). The test is described as above. As to conditions: compound 0.5 µM; ATP 10 µM.
In the case of `O=C(Nc1cccc(Nc2nccc(Nc3cccc(C(F)(F)F)c3)n2)c1)C1CC1`, the residual activity was 97.8%.

`Nc1cccc(-c2cc3c(Oc4cccc(O)c4)ncnc3[nH]2)c1`: the residual activity stood at 40.7%.

`CC[n+]1c(/C=C/N(C)c2ccccc2)n(-c2ccccc2)c2ccc(-c3nc4ccccc4s3)cc21`: the residual activity turned out to be 99.1%.

Another test addresses FGFR3 (human) (UniProt P22607). The test is described as above. As to conditions: compound 0.5 µM; ATP 10 µM.
With `O=C(Nc1cccc(Nc2nccc(Nc3cccc(C(F)(F)F)c3)n2)c1)C1CC1`, the residual activity was 95%.

Consider `Nc1cccc(-c2cc3c(Oc4cccc(O)c4)ncnc3[nH]2)c1`, for which the residual activity stood at 67.9%.

Regarding `CC[n+]1c(/C=C/N(C)c2ccccc2)n(-c2ccccc2)c2ccc(-c3nc4ccccc4s3)cc21`, the residual activity was 88.4%.

In a further test the target is GRK4 (human) (UniProt P32298). Described as above. Conditions: compound 0.5 µM; ATP 10 µM.
Take `O=C(Nc1cccc(Nc2nccc(Nc3cccc(C(F)(F)F)c3)n2)c1)C1CC1`: the residual activity was 96.9%.

With `Nc1cccc(-c2cc3c(Oc4cccc(O)c4)ncnc3[nH]2)c1`, the residual activity was determined as 94.7%.

Regarding `CC[n+]1c(/C=C/N(C)c2ccccc2)n(-c2ccccc2)c2ccc(-c3nc4ccccc4s3)cc21`, the residual activity amounted to 103%.

The next test concerns the target IRAK4 (human) (UniProt Q9NWZ3). Described as above. Conditions: compound 0.5 µM; ATP 10 µM.
Consider `O=C(Nc1cccc(Nc2nccc(Nc3cccc(C(F)(F)F)c3)n2)c1)C1CC1`, for which the residual activity stood at 146%.

`Nc1cccc(-c2cc3c(Oc4cccc(O)c4)ncnc3[nH]2)c1`: the residual activity is 88.2%.

Take `CC[n+]1c(/C=C/N(C)c2ccccc2)n(-c2ccccc2)c2ccc(-c3nc4ccccc4s3)cc21`: the residual activity was found to be 173%.

For another test, the target named is KIT (human) (UniProt P10721). Described as above. Conditions: compound 0.5 µM; ATP 10 µM.
For the compound `O=C(Nc1cccc(Nc2nccc(Nc3cccc(C(F)(F)F)c3)n2)c1)C1CC1`, the residual activity turned out to be 86.1%.

As for `Nc1cccc(-c2cc3c(Oc4cccc(O)c4)ncnc3[nH]2)c1`, the residual activity came to 35.1%.

As to `CC[n+]1c(/C=C/N(C)c2ccccc2)n(-c2ccccc2)c2ccc(-c3nc4ccccc4s3)cc21`, the residual activity stood at 104%.

Another test concerns the target LYN (human) (UniProt P07948). The test is described as above. As to conditions: compound 0.5 µM; ATP 10 µM.
`O=C(Nc1cccc(Nc2nccc(Nc3cccc(C(F)(F)F)c3)n2)c1)C1CC1`: the residual activity is 91.9% and 99.9%.

For `Nc1cccc(-c2cc3c(Oc4cccc(O)c4)ncnc3[nH]2)c1`, the residual activity was 11.1% and 21.4%.

Consider `CC[n+]1c(/C=C/N(C)c2ccccc2)n(-c2ccccc2)c2ccc(-c3nc4ccccc4s3)cc21`, for which the residual activity was 100% and 110%.

The target of a further test is MAPK14 (human) (UniProt Q16539). Described as above. As to conditions: compound 0.5 µM; ATP 10 µM.
Chain of MAPK14 (human) (Q16539 whole entry, looked up): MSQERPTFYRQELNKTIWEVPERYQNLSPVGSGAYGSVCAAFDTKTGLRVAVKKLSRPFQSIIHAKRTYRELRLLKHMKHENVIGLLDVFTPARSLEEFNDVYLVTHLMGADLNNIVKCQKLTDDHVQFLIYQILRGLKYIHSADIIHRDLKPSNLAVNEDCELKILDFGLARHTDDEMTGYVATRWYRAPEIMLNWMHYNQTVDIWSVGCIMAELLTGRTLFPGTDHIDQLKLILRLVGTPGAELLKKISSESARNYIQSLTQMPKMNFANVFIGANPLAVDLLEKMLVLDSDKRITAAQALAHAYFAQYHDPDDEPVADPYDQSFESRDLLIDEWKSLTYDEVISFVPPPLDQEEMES
Take `O=C(Nc1cccc(Nc2nccc(Nc3cccc(C(F)(F)F)c3)n2)c1)C1CC1`: the residual activity came out at 91.5%.

As for `Nc1cccc(-c2cc3c(Oc4cccc(O)c4)ncnc3[nH]2)c1`, the residual activity is 98.1%.

Turning to `CC[n+]1c(/C=C/N(C)c2ccccc2)n(-c2ccccc2)c2ccc(-c3nc4ccccc4s3)cc21`, the residual activity amounted to 94.9%.

Another test has as its target MAPK3 (human) (UniProt P27361). The test is described as above. Conditions: compound 0.5 µM; ATP 10 µM.
In the case of `O=C(Nc1cccc(Nc2nccc(Nc3cccc(C(F)(F)F)c3)n2)c1)C1CC1`, the residual activity was 98.2%.

On to `Nc1cccc(-c2cc3c(Oc4cccc(O)c4)ncnc3[nH]2)c1`, for which the residual activity amounted to 86.9%.

Regarding `CC[n+]1c(/C=C/N(C)c2ccccc2)n(-c2ccccc2)c2ccc(-c3nc4ccccc4s3)cc21`, the residual activity stood at 112%.

The target of the next test is MAPK9 (human) (UniProt P45984). Described as above. Conditions: compound 0.5 µM; ATP 10 µM.
Regarding `O=C(Nc1cccc(Nc2nccc(Nc3cccc(C(F)(F)F)c3)n2)c1)C1CC1`, the residual activity is 98.7%.

On to `Nc1cccc(-c2cc3c(Oc4cccc(O)c4)ncnc3[nH]2)c1`, for which the residual activity is 111%.

`CC[n+]1c(/C=C/N(C)c2ccccc2)n(-c2ccccc2)c2ccc(-c3nc4ccccc4s3)cc21`: the residual activity worked out at 94.6%.

In another test the target is MAPKAPK2 (human) (UniProt P49137). Described as above. As to conditions: compound 0.5 µM; ATP 10 µM.
As for `O=C(Nc1cccc(Nc2nccc(Nc3cccc(C(F)(F)F)c3)n2)c1)C1CC1`, the residual activity is 102%.

Take `Nc1cccc(-c2cc3c(Oc4cccc(O)c4)ncnc3[nH]2)c1`: the residual activity is 108%.

As to `CC[n+]1c(/C=C/N(C)c2ccccc2)n(-c2ccccc2)c2ccc(-c3nc4ccccc4s3)cc21`, the residual activity came to 97.2%.

A further test addresses MELK (human) (UniProt Q14680). The description is as above. Conditions: compound 0.5 µM; ATP 10 µM.
With `O=C(Nc1cccc(Nc2nccc(Nc3cccc(C(F)(F)F)c3)n2)c1)C1CC1`, the residual activity worked out at 101%.

Regarding `Nc1cccc(-c2cc3c(Oc4cccc(O)c4)ncnc3[nH]2)c1`, the residual activity stood at 93.4%.

Regarding `CC[n+]1c(/C=C/N(C)c2ccccc2)n(-c2ccccc2)c2ccc(-c3nc4ccccc4s3)cc21`, the residual activity is 93.4%.

The target in another test is MLTK (human) (UniProt Q9NYL2). Described as above. As to conditions: compound 0.5 µM; ATP 10 µM.
As for `O=C(Nc1cccc(Nc2nccc(Nc3cccc(C(F)(F)F)c3)n2)c1)C1CC1`, the residual activity stood at 110%.

As for `Nc1cccc(-c2cc3c(Oc4cccc(O)c4)ncnc3[nH]2)c1`, the residual activity is 13.9%.

As for `CC[n+]1c(/C=C/N(C)c2ccccc2)n(-c2ccccc2)c2ccc(-c3nc4ccccc4s3)cc21`, the residual activity was found to be 93.8%.

For the next test, the target named is NEK1 (human) (UniProt Q96PY6). The test is described as above. Conditions: compound 0.5 µM; ATP 10 µM.
Take `O=C(Nc1cccc(Nc2nccc(Nc3cccc(C(F)(F)F)c3)n2)c1)C1CC1`: the residual activity turned out to be 82.8%.

On to `Nc1cccc(-c2cc3c(Oc4cccc(O)c4)ncnc3[nH]2)c1`, for which the residual activity worked out at 92.3%.

For `CC[n+]1c(/C=C/N(C)c2ccccc2)n(-c2ccccc2)c2ccc(-c3nc4ccccc4s3)cc21`, the residual activity came out at 102%.
